Test results: PubChem BioAssay (NCI)
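Grown in 96-well plates, cells were treated for 48 hours with each compound at five concentrations. Insufficient inhibition: endpoint recorded as highest concentration tested. Here, GI50 denotes the concentration required for 50% inhibition of growth. TGI marks complete inhibition of growth.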

Tests used:
Experiment in all cases: DTP human tumour cell line panel, 48 h
[1] = system: OVCAR-5 ovarian
[2] = system: HOP-62 NSCLC
[3] = system: SNB-19 CNS
[4] = system: KM12 colon
[5] = system: SNB-75 CNS
[6] = system: COLO 205 colon
[7] = system: HCC-2998 colon
[8] = system: NCI-H522 lung
[9] = system: CCRF-CEM leukemia
[10] = system: SK-MEL-5 melanoma

Row | SMILES | GI50 [1] [µM] | TGI [1] [µM] | GI50 [2] [µM] | TGI [2] [µM] | GI50 [3] [µM] | TGI [3] [µM] | GI50 [4] [µM] | TGI [4] [µM] | GI50 [5] [µM] | TGI [5] [µM] | GI50 [6] [µM] | TGI [6] [µM] | GI50 [7] [µM] | TGI [7] [µM] | GI50 [8] [µM] | TGI [8] [µM] | GI50 [9] [µM] | TGI [9] [µM] | TGI [10] [µM] | GI50 [10] [µM]
1 | Cn1c2c(cc(S(=O)(=O)c3ccccc3)c1=O)CCc1c-2cnn1-c1ccc(Cl)cc1 | 3.37 | > 100 | 2.93 | 7.61 | 2.01 | 4.33 | 5.12 | > 100 | 1.93 | 4.02 | > 100 | > 100 | 7.31 | > 100 | 1.78 | 4.12 | > 100 | > 100 | – | –
2 | Cc1c(C#N)c(=O)[nH]c(=O)n1CCN1CCN(C(=O)NCCCCCCNC(=O)N2CCN(CCn3c(C)c(C#N)c(=O)[nH]c3=O)CC2)CC1 | – | – | – | > 100 | – | > 100 | – | – | – | > 100 | – | > 100 | – | > 100 | – | – | – | > 100 | > 100 | –
3 | O=S(=O)(c1ccccc1)C(CN1CCCCC1)S(=O)(=O)c1ccccc1 | – | > 100 | – | > 100 | – | > 100 | – | > 100 | – | > 100 | – | > 100 | – | > 100 | – | > 100 | – | > 100 | – | –
4 | CS(=O)(=O)Oc1cccc(/C=N/N=C(\N)NO)c1 | – | > 100 | – | > 100 | – | > 100 | – | > 100 | – | > 100 | – | > 100 | – | 59.1 | – | > 100 | – | > 100 | – | –
5 | CCCCCCCCCCCCCCCCCC(=O)OCC(COC1OC(COP(=O)(O)O)C(O)C(O)C1O)OC(=O)CCCCCCCCCCCCCCCCC (centres undefined) | – | 11.4 | – | 15.1 | – | 14.8 | – | 13 | – | 11.5 | – | 18.5 | – | 15.7 | – | – | – | 14.4 | 16.6 | –
6 | Cc1cc2c3ccc(C)[n+](C)c3ccc2n1C | 5.42 | 44 | 2.8 | 18.8 | 2 | 14 | 0.723 | 3.46 | 3.15 | 14.7 | 1.75 | 5.52 | 2.6 | 19.8 | 4.83 | 29.3 | – | – | 14.8 | 3.65
7 | CN(C)c1nc(=Nc2ccc3ccccc3c2)ss1 | – | – | – | > 100 | – | > 100 | – | > 100 | – | > 100 | – | 23.2 | – | > 100 | – | 65.9 | – | 73.5 | 29.9 | –
8 | CCOC(=O)C(C)(c1cn(C)c2ccccc12)c1cn(C)c2ccccc12 | – | > 100 | – | > 100 | – | – | – | > 100 | – | 51.9 | – | – | – | > 100 | – | – | – | > 100 | > 100 | –
9 | C=C1CC[C@@H]2[C@](C)(COC(C)=O)[C@@H](O)CC[C@@]2(C)[C@@H]1COc1ccc2ccc(=O)oc2c1 | > 100 | > 100 | > 100 | > 100 | > 100 | > 100 | > 100 | > 100 | 17.6 | > 100 | – | – | > 100 | > 100 | > 100 | > 100 | > 100 | > 100 | > 100 | > 100
